According to ChEMBL document CHEMBL1201862, “PubChem BioAssay data set” (2004):
Active and inactive are the calls of the source.

Tests used:
[1] = biological target: Luciferin 4-monooxygenase (Photinus pyralis, UniProt P08659); test: Counter Screen for Luciferase-based Assay Positives. [Related pubchem assays: 620, 618, 411 ]
HT-1080 = test: cytotoxicity in HT1080 fibrosarcoma cells, cell-based, fluorescence readout (AID 620); type: functional; settings: Homo sapiens
[2] = biological target: T1, E3 ubiquitin-protein ligase XIAP (Homo sapiens, UniProt P98170); test: Counter Screen using XIAP-Bir3 for Chemical Antagonists of Bir1/2 domains of IAP-family anti-apoptotic proteins. [Related pubchem assays (depositor defined):AID1018, AID1449, AID1514, AID1638, AID1749, AID1750, AID488957, AID488963]
T1 sequence (P98170 whole entry): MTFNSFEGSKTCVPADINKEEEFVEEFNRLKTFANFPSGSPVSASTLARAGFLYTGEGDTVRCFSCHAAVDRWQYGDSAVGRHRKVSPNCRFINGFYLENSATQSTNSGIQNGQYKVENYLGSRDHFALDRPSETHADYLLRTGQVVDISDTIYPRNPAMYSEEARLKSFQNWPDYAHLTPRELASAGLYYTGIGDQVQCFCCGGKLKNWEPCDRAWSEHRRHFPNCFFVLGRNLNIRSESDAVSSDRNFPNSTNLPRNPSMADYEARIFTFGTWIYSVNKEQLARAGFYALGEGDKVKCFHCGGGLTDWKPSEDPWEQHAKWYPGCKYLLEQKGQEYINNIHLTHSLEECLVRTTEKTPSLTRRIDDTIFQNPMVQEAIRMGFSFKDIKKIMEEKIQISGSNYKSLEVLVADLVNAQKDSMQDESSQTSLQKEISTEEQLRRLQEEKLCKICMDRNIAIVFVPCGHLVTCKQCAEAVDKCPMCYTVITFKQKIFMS

[3] = biological target: T1, E3 ubiquitin-protein ligase XIAP; test: XIAP antagonists, biochemical, IAP family, fluorescence polarization (AID 1018); type: functional
[4] = biological target: T2, Corticotropin-releasing factor receptor 2/Corticotropin-releasing factor-binding protein (Homo sapiens, UniProt P24387+Q13324); test: Dose Response confirmation of uHTS hits for small molecule antagonists of the CRF-binding protein and CRF-R2 receptor complex.; type: functional; settings: read-out: IC50_Mean
T2 sequence (Q13324 whole entry): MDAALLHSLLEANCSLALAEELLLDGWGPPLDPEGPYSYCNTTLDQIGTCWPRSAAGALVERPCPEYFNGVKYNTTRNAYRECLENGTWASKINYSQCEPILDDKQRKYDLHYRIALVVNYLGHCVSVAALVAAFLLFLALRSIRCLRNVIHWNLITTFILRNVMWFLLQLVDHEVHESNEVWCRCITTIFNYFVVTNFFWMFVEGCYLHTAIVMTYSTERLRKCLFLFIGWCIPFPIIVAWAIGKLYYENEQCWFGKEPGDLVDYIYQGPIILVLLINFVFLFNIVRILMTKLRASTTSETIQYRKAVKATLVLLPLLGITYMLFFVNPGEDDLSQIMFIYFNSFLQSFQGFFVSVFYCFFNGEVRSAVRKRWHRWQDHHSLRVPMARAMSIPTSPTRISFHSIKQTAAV
T2 sequence (P24387 whole entry): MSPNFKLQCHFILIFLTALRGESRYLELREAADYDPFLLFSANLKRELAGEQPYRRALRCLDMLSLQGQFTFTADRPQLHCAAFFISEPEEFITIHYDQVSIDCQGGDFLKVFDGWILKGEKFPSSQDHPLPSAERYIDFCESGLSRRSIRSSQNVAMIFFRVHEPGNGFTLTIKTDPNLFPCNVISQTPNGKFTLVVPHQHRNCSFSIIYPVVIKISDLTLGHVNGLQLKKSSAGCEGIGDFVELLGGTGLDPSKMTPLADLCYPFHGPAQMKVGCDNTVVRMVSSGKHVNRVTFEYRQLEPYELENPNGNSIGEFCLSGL

[5] = biological target: T2, Corticotropin-releasing factor receptor 2/Corticotropin-releasing factor-binding protein; test: activators of CRF receptor 2 with binding protein – uHTS hits, confirmation (AID 602473); type: functional; settings: read-out: EC50_Mean
[6] = biological target: T3, Sphingosine 1-phosphate receptor 4 (Homo sapiens, UniProt O95977); test: Fluorescence dose response cell-based high throughput screening assay for antagonists of the Sphingosine 1-Phosphate Receptor 4 (S1P4). [Related pubchem assays: 1524 (Confirmation in triplicates.), 1510 (Primary screen.)]; type: functional
T3 sequence (O95977 whole entry): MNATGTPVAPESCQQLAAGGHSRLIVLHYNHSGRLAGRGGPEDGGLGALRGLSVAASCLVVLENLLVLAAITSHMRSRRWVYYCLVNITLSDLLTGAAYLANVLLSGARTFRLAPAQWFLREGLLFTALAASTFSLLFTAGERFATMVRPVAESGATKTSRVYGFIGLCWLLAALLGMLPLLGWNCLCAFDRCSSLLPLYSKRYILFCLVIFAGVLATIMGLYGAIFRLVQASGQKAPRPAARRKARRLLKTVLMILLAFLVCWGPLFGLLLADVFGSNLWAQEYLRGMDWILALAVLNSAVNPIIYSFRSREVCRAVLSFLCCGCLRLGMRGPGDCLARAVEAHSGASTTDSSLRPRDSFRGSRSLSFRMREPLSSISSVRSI

[7] = biological target: Sphingosine 1-phosphate receptor 1 (Homo sapiens, UniProt P21453); type: functional;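 note: Tango beta-arrestin reporter U2OS cells stimulated with S1P near its EC80; inhibitor potency meaning antagonism of receptor activation by the natural agonist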
Vero [8] = test: cells; type: functional, cell-based; settings: Chlorocebus sabaeus
Vero [9] = test: cells; type: functional; settings: Chlorocebus sabaeus
[10] = biological target: T4, Peroxisome proliferator-activated receptor gamma/Nuclear receptor coactivator 2 (Homo sapiens, UniProt P37231); type: functional
T4 sequence (P37231 whole entry): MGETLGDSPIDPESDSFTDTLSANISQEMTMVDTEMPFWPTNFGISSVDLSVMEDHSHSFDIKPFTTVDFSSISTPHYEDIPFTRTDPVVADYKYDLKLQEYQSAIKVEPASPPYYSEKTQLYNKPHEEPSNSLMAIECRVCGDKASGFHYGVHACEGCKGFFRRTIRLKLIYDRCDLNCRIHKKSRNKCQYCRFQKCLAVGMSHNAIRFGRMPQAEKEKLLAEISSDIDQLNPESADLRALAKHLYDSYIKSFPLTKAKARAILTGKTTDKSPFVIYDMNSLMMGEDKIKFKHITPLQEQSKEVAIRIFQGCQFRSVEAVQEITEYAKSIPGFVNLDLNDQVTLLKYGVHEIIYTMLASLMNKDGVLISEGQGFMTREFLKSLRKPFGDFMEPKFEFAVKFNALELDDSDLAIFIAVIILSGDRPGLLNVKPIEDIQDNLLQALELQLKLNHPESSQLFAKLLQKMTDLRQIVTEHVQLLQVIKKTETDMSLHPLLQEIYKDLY
T4 sequence (Q15596 whole entry, further chain): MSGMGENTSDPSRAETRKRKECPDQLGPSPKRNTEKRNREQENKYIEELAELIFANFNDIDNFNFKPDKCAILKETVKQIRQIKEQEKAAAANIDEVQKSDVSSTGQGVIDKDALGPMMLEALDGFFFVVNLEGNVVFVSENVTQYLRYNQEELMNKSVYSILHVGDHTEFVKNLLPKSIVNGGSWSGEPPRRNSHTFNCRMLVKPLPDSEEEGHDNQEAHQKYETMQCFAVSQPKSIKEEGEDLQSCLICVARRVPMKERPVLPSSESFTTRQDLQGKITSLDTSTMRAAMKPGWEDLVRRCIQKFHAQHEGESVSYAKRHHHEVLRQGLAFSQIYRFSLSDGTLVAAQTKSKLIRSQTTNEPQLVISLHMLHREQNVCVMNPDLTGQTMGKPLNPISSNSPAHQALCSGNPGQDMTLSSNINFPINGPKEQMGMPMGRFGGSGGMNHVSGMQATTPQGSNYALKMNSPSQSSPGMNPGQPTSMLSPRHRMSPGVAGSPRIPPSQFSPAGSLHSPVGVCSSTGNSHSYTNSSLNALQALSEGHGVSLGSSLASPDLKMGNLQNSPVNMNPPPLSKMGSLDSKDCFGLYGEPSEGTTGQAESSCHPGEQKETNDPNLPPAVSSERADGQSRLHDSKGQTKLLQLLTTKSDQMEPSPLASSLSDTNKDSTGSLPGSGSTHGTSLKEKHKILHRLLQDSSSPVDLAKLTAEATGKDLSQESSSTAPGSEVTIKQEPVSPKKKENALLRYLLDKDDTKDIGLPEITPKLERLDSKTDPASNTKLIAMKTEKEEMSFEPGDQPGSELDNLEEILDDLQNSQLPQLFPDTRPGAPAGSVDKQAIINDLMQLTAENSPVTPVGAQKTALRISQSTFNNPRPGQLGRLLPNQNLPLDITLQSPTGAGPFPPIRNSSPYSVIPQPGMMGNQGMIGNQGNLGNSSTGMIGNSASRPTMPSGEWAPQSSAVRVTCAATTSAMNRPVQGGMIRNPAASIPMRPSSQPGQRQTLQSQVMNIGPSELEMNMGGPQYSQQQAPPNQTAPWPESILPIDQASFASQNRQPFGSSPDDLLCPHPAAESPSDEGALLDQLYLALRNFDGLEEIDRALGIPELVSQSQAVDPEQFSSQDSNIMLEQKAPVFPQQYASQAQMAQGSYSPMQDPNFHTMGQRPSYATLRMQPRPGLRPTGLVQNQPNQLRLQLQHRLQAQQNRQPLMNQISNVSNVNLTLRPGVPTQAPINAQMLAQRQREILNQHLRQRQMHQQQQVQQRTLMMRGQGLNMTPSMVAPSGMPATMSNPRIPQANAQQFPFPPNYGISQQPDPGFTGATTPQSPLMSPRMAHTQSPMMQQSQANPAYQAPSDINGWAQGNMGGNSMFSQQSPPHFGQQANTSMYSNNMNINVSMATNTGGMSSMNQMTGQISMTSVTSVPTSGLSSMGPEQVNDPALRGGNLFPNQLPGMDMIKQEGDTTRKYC

[11] = biological target: T5, Peroxisome proliferator-activated receptor gamma/Nuclear receptor coactivator 1 (Homo sapiens, UniProt P37231); type: functional
[12] = biological target: T6, Peroxisome proliferator-activated receptor gamma/Nuclear receptor coactivator 3 (Homo sapiens, UniProt P37231); type: functional
T6 sequence (P37231 whole entry): as the sequence (P37231 whole entry) above
T6 sequence (Q9Y6Q9 whole entry, further chain): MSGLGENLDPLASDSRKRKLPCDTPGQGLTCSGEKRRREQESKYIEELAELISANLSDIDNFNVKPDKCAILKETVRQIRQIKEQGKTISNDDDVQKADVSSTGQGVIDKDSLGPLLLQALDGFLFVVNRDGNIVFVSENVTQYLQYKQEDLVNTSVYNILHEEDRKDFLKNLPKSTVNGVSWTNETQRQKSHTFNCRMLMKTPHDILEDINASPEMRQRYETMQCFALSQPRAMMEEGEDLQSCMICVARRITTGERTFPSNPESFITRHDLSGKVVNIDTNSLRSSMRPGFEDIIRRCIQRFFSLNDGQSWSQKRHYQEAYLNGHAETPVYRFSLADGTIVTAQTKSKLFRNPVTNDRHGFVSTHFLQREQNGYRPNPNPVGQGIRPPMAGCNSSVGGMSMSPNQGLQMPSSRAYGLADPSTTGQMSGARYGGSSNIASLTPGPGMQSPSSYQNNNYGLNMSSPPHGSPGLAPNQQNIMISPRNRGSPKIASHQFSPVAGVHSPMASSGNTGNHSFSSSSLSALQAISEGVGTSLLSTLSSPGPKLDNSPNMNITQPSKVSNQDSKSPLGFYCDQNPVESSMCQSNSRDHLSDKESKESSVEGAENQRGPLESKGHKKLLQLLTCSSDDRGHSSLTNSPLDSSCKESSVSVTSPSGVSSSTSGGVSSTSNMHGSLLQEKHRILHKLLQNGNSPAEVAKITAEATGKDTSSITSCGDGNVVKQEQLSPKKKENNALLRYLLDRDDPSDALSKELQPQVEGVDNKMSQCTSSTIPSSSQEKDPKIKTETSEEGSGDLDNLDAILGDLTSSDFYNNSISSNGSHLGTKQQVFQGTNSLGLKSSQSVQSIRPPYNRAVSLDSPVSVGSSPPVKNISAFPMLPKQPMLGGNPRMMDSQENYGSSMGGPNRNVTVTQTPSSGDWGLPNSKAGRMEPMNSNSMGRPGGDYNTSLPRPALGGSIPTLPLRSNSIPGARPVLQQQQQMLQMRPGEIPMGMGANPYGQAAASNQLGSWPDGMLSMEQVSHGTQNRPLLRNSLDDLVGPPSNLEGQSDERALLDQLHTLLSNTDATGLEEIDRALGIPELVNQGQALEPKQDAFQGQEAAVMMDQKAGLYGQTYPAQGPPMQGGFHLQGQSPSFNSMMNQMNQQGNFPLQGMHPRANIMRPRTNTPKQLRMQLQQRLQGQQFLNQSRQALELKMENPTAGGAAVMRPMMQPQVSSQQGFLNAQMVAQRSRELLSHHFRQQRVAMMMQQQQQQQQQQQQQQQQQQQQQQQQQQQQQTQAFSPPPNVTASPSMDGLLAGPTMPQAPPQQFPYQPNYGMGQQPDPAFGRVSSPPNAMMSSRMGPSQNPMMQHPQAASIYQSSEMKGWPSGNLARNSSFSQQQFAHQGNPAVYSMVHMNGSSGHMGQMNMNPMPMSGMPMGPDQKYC

Cytochrome P450 2C19 = Cytochrome P450 2C19 (Homo sapiens, UniProt P33261); test: Cytochrome panel assay with activity outcomes. Panel member name: p450-cyp2c19 Compounds with AC50 equal or less than 10 uM are considered active; type: functional; settings: read-out: AC50
Cytochrome P450 2C9 = Cytochrome P450 2C9 (Homo sapiens, UniProt P11712)
[13] = biological target: T5, Peroxisome proliferator-activated receptor gamma/Nuclear receptor coactivator 1; test: (§1) TR-FRET dose response biochemical High Throughput Screening assay for agonists of the steroid receptor coactivator 1 (SRC-1) recruitment by the peroxisome proliferator-activated receptor gamma (PPAR gamma): non-selective agonists. [Related pubchem assays (depositor defined):AID1300, AID1808, AID504735, AID631]; type: protein assay
[14] = biological target: T6, Peroxisome proliferator-activated receptor gamma/Nuclear receptor coactivator 3; test: as §1, with “3 (SRC-3)” for “1 (SRC-1)”, “assays: 1301 (Confirmation screen.), 1048 (Primary screen.)]” for “assays (depositor defined):AID1300, AID1808, AID504735, AID631]”; type: functional
[15] = biological target: T4, Peroxisome proliferator-activated receptor gamma/Nuclear receptor coactivator 2; test: TR-FRET dose response biochemical High Throughput Screening assay for agonists of the steroid receptor coactivator 2 (SRC-2) recruitment by the peroxisome proliferator-activated receptor gamma (PPAR gamma): non-selective agonists. [Related pubchem assays: 1297, 1032 ]; type: functional
Ephrin type-A receptor 4 = Ephrin type-A receptor 4 (Mus musculus, UniProt Q03137); test: inhibitors of EphA4 binding to KYL peptide, primary screen, biochemical, colorimetric, mouse EphA4 (AID 689); type: functional
Nonstructural protein 1 = Nonstructural protein 1 (Influenza A virus, UniProt Q194T2); type: functional, Influenza A virus (A/California/07/2009(H1N1))
[16] = biological target: 26S proteasome non-ATPase regulatory subunit 14 (Homo sapiens, UniProt O00487); test: inhibition of proteasome subunit RPN11 – biochemical, fluorescence polarization, uHTS hits, confirmation (AID 602368); type: functional
[17] = biological target: 72 kDa type IV collagenase (Homo sapiens, UniProt P08253); test: Dose Response validation of uHTS RPN11 inhibitor hits using a MMP-2 Fluorescence assay.; type: functional
Prothrombin = Prothrombin (Bos taurus, UniProt P00735); test: thrombin inhibition, dose response, biochemical, fluorescence polarization, uHTS hits (AID 602369); type: functional
Estrogen receptor = biological target: T7, Estrogen receptor (Homo sapiens, UniProt P03372);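 note: potency for inhibiting coactivator peptide recruitment to the receptor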
T7 sequence (P03372 whole entry): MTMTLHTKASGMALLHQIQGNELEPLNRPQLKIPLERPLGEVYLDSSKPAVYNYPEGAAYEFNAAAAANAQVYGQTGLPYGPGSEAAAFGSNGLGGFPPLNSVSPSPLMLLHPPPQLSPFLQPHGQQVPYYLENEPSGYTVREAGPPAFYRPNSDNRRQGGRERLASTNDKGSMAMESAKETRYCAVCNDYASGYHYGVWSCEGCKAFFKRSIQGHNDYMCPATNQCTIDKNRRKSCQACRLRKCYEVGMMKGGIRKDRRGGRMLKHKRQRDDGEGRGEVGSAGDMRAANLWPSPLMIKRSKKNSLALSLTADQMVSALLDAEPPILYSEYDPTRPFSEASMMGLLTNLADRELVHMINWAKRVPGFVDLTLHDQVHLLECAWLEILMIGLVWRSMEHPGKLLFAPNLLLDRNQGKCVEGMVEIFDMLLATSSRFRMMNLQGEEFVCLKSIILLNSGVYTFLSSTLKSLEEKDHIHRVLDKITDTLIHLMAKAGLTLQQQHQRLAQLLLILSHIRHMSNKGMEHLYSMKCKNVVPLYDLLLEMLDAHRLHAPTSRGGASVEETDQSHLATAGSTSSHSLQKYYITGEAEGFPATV

BJ [18] = test: cytotoxicity toward BJ-TERT fibroblasts, dose response, cell-based, RAS-independent, luminescence (AID 1933); type: functional; settings: Homo sapiens
BJ [19] = test: cells; type: functional, cell-based; settings: Homo sapiens
BJ [20] = test: cytotoxicity toward BJ-TERT-LT-ST fibroblasts, dose response, cell-based, RAS-independent, luminescence (AID 1935); type: functional; settings: Homo sapiens;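 note: BJ fibroblasts immortalized with TERT plus LT and ST oncogenes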
[21] = cytotoxicity toward DRD oncogenic fibroblasts, dose response, cell-based, non-viral oncogenic, luminescence (AID 1934); type: functional; settings: Homo sapiens
HEK293 = test: inhibitors of LMP1-driven NF-kB reporter, dose response, cell-based, HEK293, luciferase, cherry-pick (AID 588343); type: functional; settings: Homo sapiens
cells = type: functional, cell-based
[22] = biological target: T8, Nuclear receptor subfamily 0 group B member 1 (Homo sapiens, UniProt P51843); type: functional, cell-based;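 note: HEK293T cells transfected with SF-1 and DAX-1 plus StAR promoter luciferase reporter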
T8 sequence (P51843 whole entry): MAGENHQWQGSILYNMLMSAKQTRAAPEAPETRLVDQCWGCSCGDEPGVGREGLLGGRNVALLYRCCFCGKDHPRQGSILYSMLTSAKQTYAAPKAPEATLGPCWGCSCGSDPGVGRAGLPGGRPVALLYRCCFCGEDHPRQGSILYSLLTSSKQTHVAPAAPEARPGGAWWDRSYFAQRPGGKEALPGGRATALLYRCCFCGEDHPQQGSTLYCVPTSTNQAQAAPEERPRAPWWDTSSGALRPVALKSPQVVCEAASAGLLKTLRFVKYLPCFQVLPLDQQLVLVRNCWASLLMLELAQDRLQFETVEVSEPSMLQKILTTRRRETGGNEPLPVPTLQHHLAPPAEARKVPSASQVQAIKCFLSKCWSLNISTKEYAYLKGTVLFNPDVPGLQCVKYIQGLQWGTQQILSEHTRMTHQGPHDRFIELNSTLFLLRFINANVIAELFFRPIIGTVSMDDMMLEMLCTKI

Chain of Luciferin 4-monooxygenase (P08659 whole entry): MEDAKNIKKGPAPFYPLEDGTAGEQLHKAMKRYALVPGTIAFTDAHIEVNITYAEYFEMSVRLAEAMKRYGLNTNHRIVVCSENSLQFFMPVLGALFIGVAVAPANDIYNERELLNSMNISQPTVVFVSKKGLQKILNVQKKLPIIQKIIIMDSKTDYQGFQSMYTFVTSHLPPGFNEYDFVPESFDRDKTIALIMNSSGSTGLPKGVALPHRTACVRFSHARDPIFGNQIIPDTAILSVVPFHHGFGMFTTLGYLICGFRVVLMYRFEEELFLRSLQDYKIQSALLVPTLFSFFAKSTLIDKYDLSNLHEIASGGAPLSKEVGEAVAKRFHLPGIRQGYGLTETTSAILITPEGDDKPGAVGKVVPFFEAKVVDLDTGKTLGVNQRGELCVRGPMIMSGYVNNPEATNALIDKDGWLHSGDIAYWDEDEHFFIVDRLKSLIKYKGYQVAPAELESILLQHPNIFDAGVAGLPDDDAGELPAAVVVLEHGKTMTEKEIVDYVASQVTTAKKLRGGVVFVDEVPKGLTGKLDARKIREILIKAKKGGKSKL

In the case of `Fc1ccccc1OCCSc1nnnn1-c1ccccc1`, the EC50 [1] is reported as 3.32 µM (active) and the EC50 (HT-1080) is reported as > 50 µM (not active).
With `COc1ccc(Cl)cc1NC(=O)CNc1ccccc1F` the IC50 [2] was > 100 µM (inactive), the IC50 [3] was > 100 µM (not active) and the IC50 [4] was > 47.1 µM (inactive). For the same compound, the EC50 [5] was > 53 µM (inactive).
For `O=C(/C=C/c1ccccc1)CC(O)(c1ccccc1)C(F)(F)F` (stereo not drawn), the IC50 [6] was 1.97 µM (active), the IC50 [7] was 25.9 µM (not active) and the IC50 (Vero [8]) was > 25 µM (active). The CC50 (Vero [9]) was 13.6 µM (active).
For `CCOC(=O)c1sc2nc(CC(=O)OC)nc(NCc3ccc(F)cc3)c2c1C`, the EC50 [10] was > 79.4 µM (not active), the EC50 [11] was > 79.4 µM (not active) and the EC50 [12] was > 79.4 µM (not active). The AC50 (Cytochrome P450 2C19) was 5.62 µM (inconclusive) and the AC50 (Cytochrome P450 2C9) was 5.01 µM (inconclusive).
In the case of `CN(C)c1ccc(/C=C/C=C2/SC(=S)N(c3ccccc3)C2=O)cc1`, the EC50 [13] is reported as > 79.4 µM (inactive), the EC50 [14] is reported as > 79.4 µM (not active) and the EC50 [15] is reported as > 79.4 µM (not active). For the same compound, the IC50 (Ephrin type-A receptor 4) was 0.6 µM (active), the IC50 (Nonstructural protein 1) was 5.48 µM (active) and the IC50 [16] was 0.703 µM (active). For the same compound, the IC50 [17] was > 100 µM (inactive) and the IC50 (Prothrombin) was 0.529 µM (active).
For `CCOC(=O)C1=C(Nc2ccc(C)cc2)S/C(=C\c2cn(CC(=O)NCC3CCCO3)c3ccccc23)C1=O` (stereo not drawn), the IC50 (Estrogen receptor) was 7.6 µM (active).
For `c1ccc(C2=NN=C(NC3CC3)SC2)cc1`, the EC50 (BJ [18]) was 13.1 µM (active), the EC50 [1] was 1.24 µM (active) and the EC50 (BJ [19]) was 12.4 µM (inconclusive). The EC50 (HT-1080) was > 50 µM (not active), the EC50 (BJ [20]) was > 150 µM (inconclusive) and the EC50 [21] was 10.5 µM (active). The AC50 (HEK293) was 2.58 µM (active), the IC50 (cells) was > 67.6 µM (inactive) and the IC50 [22] was > 67.6 µM (inactive).
